Key:
Test in all cases: relative viability (nuclei count vs DMSO), 5 days (fraction); higher = more cells survive
[1] = compound: Cc1ccc(-n2nc(C(C)(C)C)cc2NC(=O)Nc2ccc(OCCN3CCOCC3)c3ccccc23)cc1 [Doramapimod] + CC(C)C[C@H](NC(=O)[C@H](Cc1ccccc1)NC(=O)c1cnccn1)B(O)O [Bortezomib] (partner 0.002 µM)
Outline: (§1)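 For relative viability, nuclei counts in treated wells were divided by those in vehicle wells. Lung cancer cell lines had been pin-tool dosed in 1536-well plates the day after seeding and cultured for 5 days, then fixed and stained in one step (final 0.05% Triton X-100, 1% formaldehyde, 1 ug/ml Hoechst) and imaged at 4×. Doses were one drug alone or a fixed anchor-drug dose plus five library-drug doses (not always all listed) in √10 steps, and values are duplicate-plate medians.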

[2] = compound: Cc1ccc(-n2nc(C(C)(C)C)cc2NC(=O)Nc2ccc(OCCN3CCOCC3)c3ccccc23)cc1 [Doramapimod] + C[C@]1(O)C[C@@H](c2nc(-c3ccc4ccc(-c5ccccc5)nc4c3)c3c(N)nccn32)C1 [Linsitinib] (partner 1 µM)
Outline: as §1

[3] = compound: Cc1ccc(-n2nc(C(C)(C)C)cc2NC(=O)Nc2ccc(OCCN3CCOCC3)c3ccccc23)cc1 [Doramapimod] + O=C(c1cc(Cc2n[nH]c(=O)c3ccccc23)ccc1F)N1CCN(C(=O)C2CC2)CC1 [Olaparib] (partner 8 µM)
Outline: as §1

[4] = compound: Cn1c(Nc2ccc(C(F)(F)F)cc2)nc2cc(Oc3ccnc(-c4ncc(C(F)(F)F)[nH]4)c3)ccc21 [RAF265] + C[C@@H](Oc1cc(-c2cnn(C3CCNCC3)c2)cnc1N)c1c(Cl)ccc(F)c1Cl [Crizotinib] (partner 1 µM)
Outline: as §1

UMC-11
relative viability ([1]; first compound 0.02 µM): 0.772 | relative viability ([1]; first compound 0.06325 µM): 0.784 | relative viability ([1]; first compound 0.2 µM): 0.564 | relative viability ([1]; first compound 0.6325 µM): 0.675 | relative viability ([1]; first compound 2 µM): 0.568 | relative viability ([2]; first compound 0.02 µM): 0.946 | relative viability ([2]; first compound 0.06325 µM): 0.992 | relative viability ([2]; first compound 0.2 µM): 1.03 | relative viability ([2]; first compound 0.6325 µM): 1 | relative viability ([2]; first compound 2 µM): 0.718 | relative viability ([3]; first compound 0.02 µM): 0.353 | relative viability ([3]; first compound 0.06325 µM): 0.348 | relative viability ([3]; first compound 0.2 µM): 0.274 | relative viability ([3]; first compound 0.6325 µM): 0.963 | relative viability ([3]; first compound 2 µM): 0.365 | relative viability ([4]; first compound 0.01 µM): 0.676 | relative viability ([4]; first compound 0.03162 µM): 0.604 | relative viability ([4]; first compound 0.1 µM): 0.602 | relative viability ([4]; first compound 0.3162 µM): 0.648 | relative viability ([4]; first compound 1 µM): 0.501

Source: the supplement of paper PMC10307832
